Experimental data published in patent US6517856B1, “Insecticide resistance assay” (priority 1998, dated 2003).

Key:
tobacco budworm neonates = test: Larval feeding disruption assay for spinosad resistance; assay type: in vivo, Heliothis virescens; conditions: 1.6 μg active ingredient per ml diet, 24 h
Description: The Bt feeding disruption assay described above was modified to monitor spinosad resistance in tobacco budworms. Trypan Blue (Direct Blue 14, Matheson Coleman and Bell, Norwood, Ohio) was blended into artificial diet (described above) at the rate of 20 mg of dye per 100 ml diet. This diet also was formulated with 1.6 μg of spinosad active ingredient per ml diet. The spinosad was added to the diet as part of a 44.2% aqueous formulation provided to us by Dr. Clyde Sorenson (NC State University, Raleigh, N.C.). […] The blue indicator diet with spinosad was dispensed at the rate of 100 μl per well into 8-well microtitre plate strips (Nalge Nunc Int., Napersville, Ill.). The wells were sealed with strip caps (Nunc). In order to reduce condensation within the wells, caps were punctured twice with a #3 insect pin.
Hv Franklin (spinosad susceptible) and spinosad resistant (selected) neonates of the tobacco budworm were used in all assays and were added to the assay diet within 24 h of hatch. Hv Franklin has been previously shown to be representative of other field collected H. virescens strains in spinosad toxicity. Selection of our laboratory colony of tobacco budworms which were originally collected from various locations in North Carolina, with technical spinosad applied topically each generation, produced insects that were highly resistant to spinosad.
Bioassays were conducted at 27±1° C. with a 14:10 L:D cycle, and the number of blue fecal pellets produced were counted after a 24 h exposure of the neonates to the diet. Results were taken from two replicates consisting of 24 insects per replicate.

H. virescens = test: Effect of Trypan Blue in diet on rate of feces production, third instars; assay type: in vivo, Heliothis virescens; conditions: no Bt, confidence interval in brackets
Description: The blue diet used in the feeding disruption bioassay is an agar based insect meal containing 20 mg of Trypan Blue (Direct Blue 14; Matheson Coleman & Bell, Norwood, Ohio) per 100 ml of standard artificial diet, and containing different concentrations of CryIAc (MVP, Mycogen). Larvae feeding on this colored diet produced blue feces which were easily distinguished by observation from feces derived from other food sources. Assays were conducted in 1-ounce clear plastic cups (Solo Cup Company, Urbana, Ill.; approximately […] in diameter and ¾ inches high) fitted with white cardboard tops, which are routinely used for insect rearing in the inventors' laboratories. The clear plastic allowed for the observation of blue feces without opening the container.
The rate of feces production was examined for third instars of both the Wake (Bt susceptible) and YHD2 (Bt resistant) strains of H. virescens, to examine the effects of adding Trypan Blue to the standard artificial diet (the “Blue diet”). Wake budworms produced 30.6 ([…], 27.6-33.6) fecal pellets/hour/15 larvae on regular diet, and 25.5 (22.5-28.5) fecal pellets/hour/15 larvae on Trypan Blue diet. This difference, although small, was statistically significant as indicated by a significant diet×time interaction (F=6.05; df=1,24; P=0.0215) (PROC GLM procedure, SAS 1991). (Data not shown). […]

[1] = Octanol-water partition coefficient (Kow); assay type: physicochemical; conditions: method of Leo et al. (1971), mean of 3 replicates
[2] = Hv spinosad selected (resistant) neonates

spinosad
percentage producing 3-5 pellets (tobacco budworm neonates; [2]): 2.3% | percentage producing >2 fecal pellets (tobacco budworm neonates; [2]): 100% | percentage producing 0-2 fecal pellets (tobacco budworm neonates; susceptible Hv Franklin neonates): 100%

Cc1cc(-c2ccc(/N=N/c3c(S(=O)(=O)O)cc4cc(S(=O)(=O)O)cc(N)c4c3O)c(C)c2)ccc1/N=N/c1c(S(=O)(=O)O)cc2cc(S(=O)(=O)O)cc(N)c2c1O [Trypan Blue]
rate of fecal pellet production on Trypan Blue diet (H. virescens; Wake third instars): 25.5 (22.5-28.5) fecal pellets/hour/15 larvae | rate of fecal pellet production on Trypan Blue diet (H. virescens; YHD2 third instars): 34.9 (32.5-37.3) fecal pellets per hour per 15 larvae

COC(=O)/C=C(\C)CC/C=C(\C)CC[C@H]1OC1(C)C [juvenile hormone III]
Octanol-water coefficient (Kow) [1]: 165.33

CC(C)CCC[C@@H](C)[C@H]1CC[C@H]2[C@@H]3CC=C4C[C@@H](O)CC[C@]4(C)[C@H]3CC[C@]12C [cholesterol]
Octanol-water coefficient (Kow) [1]: 0.46
